Measurements published in patent US20160174533A1 (priority 2009, published 2016).
Like-named read-outs stand apart in the source and are kept apart here.

Tests used:
[1] = target: T1, androgen receptors (AR) (Homo sapiens, UniProt P10275); conditions: cited from earlier work
T1 construct: expressed in transfected cells
T1 sequence (P10275 1-920): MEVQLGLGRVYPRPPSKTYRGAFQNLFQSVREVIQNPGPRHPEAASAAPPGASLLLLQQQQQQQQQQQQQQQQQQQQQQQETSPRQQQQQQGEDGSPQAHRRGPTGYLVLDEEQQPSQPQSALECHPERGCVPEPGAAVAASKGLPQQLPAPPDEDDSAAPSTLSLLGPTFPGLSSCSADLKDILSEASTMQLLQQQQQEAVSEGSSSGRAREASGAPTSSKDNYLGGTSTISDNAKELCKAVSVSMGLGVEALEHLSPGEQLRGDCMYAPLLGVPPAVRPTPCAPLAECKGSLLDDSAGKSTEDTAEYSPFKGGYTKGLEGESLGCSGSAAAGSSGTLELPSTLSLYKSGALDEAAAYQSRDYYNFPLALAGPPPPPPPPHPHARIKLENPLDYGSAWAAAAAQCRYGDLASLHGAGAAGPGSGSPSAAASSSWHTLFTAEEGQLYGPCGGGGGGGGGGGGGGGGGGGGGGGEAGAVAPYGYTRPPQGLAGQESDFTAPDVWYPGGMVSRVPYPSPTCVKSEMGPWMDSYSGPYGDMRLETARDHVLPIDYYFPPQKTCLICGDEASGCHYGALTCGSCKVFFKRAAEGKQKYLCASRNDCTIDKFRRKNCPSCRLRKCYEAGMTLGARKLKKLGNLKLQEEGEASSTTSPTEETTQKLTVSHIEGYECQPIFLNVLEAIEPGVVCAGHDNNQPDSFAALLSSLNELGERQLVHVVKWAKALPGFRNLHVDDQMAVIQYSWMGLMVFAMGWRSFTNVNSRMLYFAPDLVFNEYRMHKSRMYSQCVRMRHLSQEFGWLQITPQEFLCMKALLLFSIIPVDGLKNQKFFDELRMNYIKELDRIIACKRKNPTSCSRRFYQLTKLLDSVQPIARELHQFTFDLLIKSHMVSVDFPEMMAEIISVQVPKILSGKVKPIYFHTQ

[2] = target: T2, ER-alpha (Homo sapiens, UniProt P03372); conditions: cited from earlier work
T2 construct: expressed in transfected cells
T2 sequence (P03372 whole entry): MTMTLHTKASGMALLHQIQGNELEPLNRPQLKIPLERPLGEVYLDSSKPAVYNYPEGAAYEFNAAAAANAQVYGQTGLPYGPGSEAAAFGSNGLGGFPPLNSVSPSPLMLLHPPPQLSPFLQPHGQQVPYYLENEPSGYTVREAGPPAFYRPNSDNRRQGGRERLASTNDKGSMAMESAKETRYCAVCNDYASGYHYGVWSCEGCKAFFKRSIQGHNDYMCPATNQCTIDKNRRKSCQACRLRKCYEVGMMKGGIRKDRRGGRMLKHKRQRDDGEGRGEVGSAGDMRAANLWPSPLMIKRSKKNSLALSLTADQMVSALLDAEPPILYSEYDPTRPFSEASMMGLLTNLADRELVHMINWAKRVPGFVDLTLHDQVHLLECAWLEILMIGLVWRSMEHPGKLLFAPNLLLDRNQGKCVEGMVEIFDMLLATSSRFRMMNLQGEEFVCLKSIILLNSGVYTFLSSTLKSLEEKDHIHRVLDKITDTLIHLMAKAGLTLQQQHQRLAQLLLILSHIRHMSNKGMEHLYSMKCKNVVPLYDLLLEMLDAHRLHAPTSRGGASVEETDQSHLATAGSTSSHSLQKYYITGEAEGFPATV

[3] = target: T3, ER-beta (Homo sapiens, UniProt Q92731); conditions: cited from earlier work
T3 construct: expressed in transfected cells
T3 sequence (Q92731 whole entry): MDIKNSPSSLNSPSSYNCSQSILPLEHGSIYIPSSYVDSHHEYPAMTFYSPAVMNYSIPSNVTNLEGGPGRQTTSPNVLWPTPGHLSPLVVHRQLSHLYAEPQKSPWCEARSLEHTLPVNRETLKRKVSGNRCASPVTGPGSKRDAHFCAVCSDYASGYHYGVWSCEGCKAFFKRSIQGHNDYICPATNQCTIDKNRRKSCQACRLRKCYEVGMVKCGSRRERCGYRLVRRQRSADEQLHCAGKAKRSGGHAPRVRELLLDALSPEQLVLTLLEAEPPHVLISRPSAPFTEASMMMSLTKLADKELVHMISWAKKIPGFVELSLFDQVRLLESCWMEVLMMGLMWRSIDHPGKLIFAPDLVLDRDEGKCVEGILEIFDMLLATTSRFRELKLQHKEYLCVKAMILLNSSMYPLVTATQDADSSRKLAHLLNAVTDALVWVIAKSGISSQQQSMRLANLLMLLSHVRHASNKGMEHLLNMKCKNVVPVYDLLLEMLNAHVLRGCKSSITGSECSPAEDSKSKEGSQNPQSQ

[4] = target: T4, Cyp1a2 (Homo sapiens, UniProt P05177); conditions: human populations; cited from earlier work
T4 sequence (P05177 1-516): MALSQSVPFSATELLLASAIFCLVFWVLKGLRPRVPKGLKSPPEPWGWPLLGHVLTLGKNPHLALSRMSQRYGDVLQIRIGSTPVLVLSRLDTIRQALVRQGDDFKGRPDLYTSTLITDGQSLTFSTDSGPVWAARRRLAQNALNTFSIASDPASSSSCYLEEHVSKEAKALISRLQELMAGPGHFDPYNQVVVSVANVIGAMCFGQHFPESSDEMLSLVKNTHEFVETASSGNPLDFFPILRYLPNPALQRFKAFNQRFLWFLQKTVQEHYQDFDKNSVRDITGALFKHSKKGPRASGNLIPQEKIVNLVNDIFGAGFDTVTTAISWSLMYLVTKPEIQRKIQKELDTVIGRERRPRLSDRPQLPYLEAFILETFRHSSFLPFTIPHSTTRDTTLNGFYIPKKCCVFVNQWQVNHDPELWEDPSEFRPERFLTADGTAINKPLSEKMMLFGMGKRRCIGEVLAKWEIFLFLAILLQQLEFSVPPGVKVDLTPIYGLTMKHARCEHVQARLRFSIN

[5] = system: Cyp7b1; conditions: liver and kidney of Cyp7b-/- mice; cited from earlier work
[6] = system: Cyp7b1; assay: DHEA metabolism in Cyp7b1 KO rats (transposon insertion)
[7] = target: T5, Cyp1a2 (Mus musculus, UniProt P00186); conditions: WT mice; cited from earlier work
T5 sequence (P00186 2-513): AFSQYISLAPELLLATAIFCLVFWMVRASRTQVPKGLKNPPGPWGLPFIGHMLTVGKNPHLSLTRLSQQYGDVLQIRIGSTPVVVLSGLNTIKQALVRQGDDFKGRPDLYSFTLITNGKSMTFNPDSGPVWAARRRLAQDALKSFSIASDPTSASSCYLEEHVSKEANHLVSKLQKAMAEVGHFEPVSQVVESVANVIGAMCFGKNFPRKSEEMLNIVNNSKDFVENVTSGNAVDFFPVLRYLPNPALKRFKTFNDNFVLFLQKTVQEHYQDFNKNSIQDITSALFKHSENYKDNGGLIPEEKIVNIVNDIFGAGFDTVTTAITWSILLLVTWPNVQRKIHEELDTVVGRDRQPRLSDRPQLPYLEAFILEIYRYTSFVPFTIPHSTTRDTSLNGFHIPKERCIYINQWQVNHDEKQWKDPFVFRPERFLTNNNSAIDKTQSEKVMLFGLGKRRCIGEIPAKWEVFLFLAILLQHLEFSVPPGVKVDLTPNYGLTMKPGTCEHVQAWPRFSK

[8] = system: Cyp1a2; conditions: Cyp1a2-/- mice; cited from earlier work
[9] = target: Cyp2e1 (Mus musculus, UniProt Q05421); conditions: mouse, in vivo, 400 mg/kg; cited from earlier work
Cyp2e1 (Mus musculus, UniProt Q05421), sequence (Q05421 whole entry): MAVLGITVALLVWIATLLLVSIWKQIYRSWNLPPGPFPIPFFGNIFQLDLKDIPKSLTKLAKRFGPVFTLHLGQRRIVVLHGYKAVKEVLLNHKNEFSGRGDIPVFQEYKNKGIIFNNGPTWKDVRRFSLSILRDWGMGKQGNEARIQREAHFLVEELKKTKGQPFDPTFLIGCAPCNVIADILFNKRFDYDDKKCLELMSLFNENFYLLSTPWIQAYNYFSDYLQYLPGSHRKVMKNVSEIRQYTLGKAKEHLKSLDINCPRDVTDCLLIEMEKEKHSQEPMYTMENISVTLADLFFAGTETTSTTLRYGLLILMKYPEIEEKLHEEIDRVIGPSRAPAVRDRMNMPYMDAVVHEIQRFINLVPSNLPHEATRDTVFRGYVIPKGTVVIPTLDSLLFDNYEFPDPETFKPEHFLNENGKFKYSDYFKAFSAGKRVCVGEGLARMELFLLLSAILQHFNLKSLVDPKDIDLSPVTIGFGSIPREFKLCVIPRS

[10] = system: Cyp2e1; conditions: Cyp2e1-/- mice; cited from earlier work
[11] = system: Cyp3a; conditions: cited from earlier work
[12] = system: Cyp3a; conditions: cited from earlier work; remark: listed apart in the source

Structure (SMILES): C[C@]12CC[C@H](O)CC1=C[C@@H](O)[C@@H]1[C@@H]2CC[C@]2(C)C(=O)CC[C@@H]12 [7-alpha-hydroxy-DHEA]
- receptor activation [1]: activates
- receptor activation [2]: activates
- receptor activation [3]: activates

Structure (SMILES): Cn1c(=O)c2c(ncn2C)n(C)c1=O [Caffeine]
- half-life [4]: 1.5 to 9.5 h

Structure (SMILES): C[C@]12CC[C@H](O)CC1=CC[C@@H]1[C@@H]2CC[C@]2(C)C(=O)CC[C@@H]12 [DHEA, dehydroepiandrosterone]
- DHEA conversion to 7D [5]: significantly altered
- metabolism of DHEA to 7α-hydroxy-DHEA [6]: unable to metabolize

Structure (SMILES): Clc1cc2c(cc1Cl)Oc1cc(Cl)c(Cl)cc1O2 [TCDD, 2,3,7,8-Tetrachlorodibenzo-p-dioxin]
- liver-to-adipose (L/F) ratio [7]: 3.6
- liver-to-adipose (L/F) ratio [8]: 0.2

Structure (SMILES): CC(=O)Nc1ccc(O)cc1 [acetaminophen]
- mice that succumb to toxicity and die [9]: over 50%
- dose survived [10]: up to 400 mg/kg

Structure (SMILES): CC(=O)O[C@@]12CO[C@@H]1C[C@H](O)[C@@]1(C)C(=O)[C@H](O)C3=C(C)[C@@H](OC(=O)[C@H](O)[C@@H](NC(=O)OC(C)(C)C)c4ccccc4)C[C@@](O)([C@@H](OC(=O)c4ccccc4)[C@H]21)C3(C)C [docetaxel]
- oral bioavailability ([11]; Cyp3a-/- mice): 21.2%
- oral bioavailability ([11]; WT mice): 8.1%
- plasma docetaxel, Cyp3a-/- versus WT mice ([11]; after i.v. administration): 6.8 fold
- plasma level of docetaxel, Cyp3a-/- versus WT mice ([11]; after oral administration): 17.7 fold
- docetaxel metabolism (KO phenotype) ([11]; mice deficient for gene family Cyp3a): function are unable to metabolize docetaxel.
- M-2 metabolite formation ([12]; Cyp3a-/- microsomes): not recognized
- M-2 metabolite formation ([12]; WT microsomes): efficiently formed
